Test results published in ChEMBL document CHEMBL4507291 (2021).

Key:
[1] = target: Tyrosine-protein kinase Blk (Homo sapiens) (UniProt P51451); assay: BLK Kinase screen; conditions: Compound concentration 1.0 uM
[2] = target: Cyclin-dependent kinase 1/cyclin B (Homo sapiens) (UniProt P06493+P14635+Q8WWL7+O95067); assay: CDK1/cyclin B Kinase screen; assay type: protein-complex assay; conditions: Compound concentration 1.0 uM
[3] = target: Tyrosine-protein kinase CSK (Homo sapiens) (UniProt P41240); assay: CSK Kinase screen; conditions: Compound concentration 1.0 uM
Sequence of Tyrosine-protein kinase CSK (Homo sapiens) (P41240 2-450 limits assumed): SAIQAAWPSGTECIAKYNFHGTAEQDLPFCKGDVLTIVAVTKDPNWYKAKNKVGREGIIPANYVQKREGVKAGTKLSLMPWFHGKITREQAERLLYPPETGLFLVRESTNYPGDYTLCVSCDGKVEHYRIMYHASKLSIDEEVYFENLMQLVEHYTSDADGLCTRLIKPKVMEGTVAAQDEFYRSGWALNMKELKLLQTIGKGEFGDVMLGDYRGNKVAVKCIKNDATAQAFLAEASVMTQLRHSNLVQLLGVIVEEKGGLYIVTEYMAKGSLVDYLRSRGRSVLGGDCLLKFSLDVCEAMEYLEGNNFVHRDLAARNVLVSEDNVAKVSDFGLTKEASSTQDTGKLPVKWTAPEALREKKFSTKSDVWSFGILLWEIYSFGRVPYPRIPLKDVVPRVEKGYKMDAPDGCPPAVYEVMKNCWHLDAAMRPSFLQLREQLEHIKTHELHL

[4] = target: Casein kinase II subunit alpha' (Homo sapiens) (UniProt P19784); assay: CSNK2A2 (CK2 alpha 2) Kinase screen; conditions: Compound concentration 1.0 uM
Sequence of Casein kinase II subunit alpha' (Homo sapiens) (P19784 whole entry, looked up): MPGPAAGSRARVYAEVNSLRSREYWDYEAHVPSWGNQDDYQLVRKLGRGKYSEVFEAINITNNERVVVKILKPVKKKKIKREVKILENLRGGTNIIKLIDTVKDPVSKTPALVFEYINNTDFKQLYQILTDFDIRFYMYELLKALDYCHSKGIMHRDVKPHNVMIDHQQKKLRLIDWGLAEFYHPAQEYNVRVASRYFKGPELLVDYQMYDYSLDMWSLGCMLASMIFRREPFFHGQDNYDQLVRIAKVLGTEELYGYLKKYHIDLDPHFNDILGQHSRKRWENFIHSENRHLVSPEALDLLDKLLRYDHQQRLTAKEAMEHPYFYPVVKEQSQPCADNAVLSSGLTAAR

[5] = target: Death-associated protein kinase 3 (Homo sapiens) (UniProt O43293); assay: DAPK3 (ZIPK) Kinase screen; conditions: Compound concentration 1.0 uM
[6] = target: Serine/threonine-protein kinase mTOR (Homo sapiens) (UniProt P42345); assay: FRAP1 (mTOR) Kinase screen; conditions: Compound concentration 1.0 uM
[7] = target: Insulin receptor (Homo sapiens) (UniProt P06213); assay: INSR Kinase screen; conditions: Compound concentration 1.0 uM
Sequence of Insulin receptor (Homo sapiens) (P06213 28-758 limits assumed): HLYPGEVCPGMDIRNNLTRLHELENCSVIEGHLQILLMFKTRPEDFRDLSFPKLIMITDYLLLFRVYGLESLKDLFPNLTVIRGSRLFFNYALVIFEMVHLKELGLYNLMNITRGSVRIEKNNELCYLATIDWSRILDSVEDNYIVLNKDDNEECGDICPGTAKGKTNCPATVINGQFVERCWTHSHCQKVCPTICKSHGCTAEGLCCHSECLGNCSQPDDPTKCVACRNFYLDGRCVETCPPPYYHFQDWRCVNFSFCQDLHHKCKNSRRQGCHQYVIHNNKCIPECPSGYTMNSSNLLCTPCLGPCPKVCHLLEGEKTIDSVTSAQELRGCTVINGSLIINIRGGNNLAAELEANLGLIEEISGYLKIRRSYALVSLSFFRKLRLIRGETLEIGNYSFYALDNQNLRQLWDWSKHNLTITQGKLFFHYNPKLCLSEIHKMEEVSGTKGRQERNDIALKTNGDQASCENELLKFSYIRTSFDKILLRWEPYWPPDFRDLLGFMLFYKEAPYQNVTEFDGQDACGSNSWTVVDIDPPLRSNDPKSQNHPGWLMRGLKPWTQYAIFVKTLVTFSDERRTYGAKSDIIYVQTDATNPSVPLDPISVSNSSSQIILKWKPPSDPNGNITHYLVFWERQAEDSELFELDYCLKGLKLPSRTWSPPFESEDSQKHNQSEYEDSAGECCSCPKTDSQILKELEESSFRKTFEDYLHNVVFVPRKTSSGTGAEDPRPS
Sequence of Insulin receptor (Homo sapiens) (P06213 763-1382 limits assumed): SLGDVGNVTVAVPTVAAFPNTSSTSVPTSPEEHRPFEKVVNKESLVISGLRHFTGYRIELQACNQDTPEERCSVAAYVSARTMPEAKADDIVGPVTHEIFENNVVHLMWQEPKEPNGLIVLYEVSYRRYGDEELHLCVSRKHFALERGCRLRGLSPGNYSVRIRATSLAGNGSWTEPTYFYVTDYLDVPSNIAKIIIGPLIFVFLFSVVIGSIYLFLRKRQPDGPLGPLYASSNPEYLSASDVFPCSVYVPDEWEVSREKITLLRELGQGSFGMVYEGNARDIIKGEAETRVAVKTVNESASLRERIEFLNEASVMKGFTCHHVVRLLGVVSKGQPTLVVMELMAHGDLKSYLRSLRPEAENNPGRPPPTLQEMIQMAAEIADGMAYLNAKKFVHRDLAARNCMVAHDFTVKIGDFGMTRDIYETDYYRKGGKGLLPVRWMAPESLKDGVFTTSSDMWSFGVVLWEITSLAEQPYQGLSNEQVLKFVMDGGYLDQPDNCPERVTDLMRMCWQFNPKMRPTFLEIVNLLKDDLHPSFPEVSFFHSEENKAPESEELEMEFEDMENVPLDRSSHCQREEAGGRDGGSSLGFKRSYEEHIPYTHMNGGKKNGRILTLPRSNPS

[8] = target: Mitogen-activated protein kinase 10 (Homo sapiens) (UniProt P53779); assay: MAPK10 (JNK3) Kinase screen; conditions: Compound concentration 1.0 uM
Sequence of Mitogen-activated protein kinase 10 (Homo sapiens) (P53779 whole entry): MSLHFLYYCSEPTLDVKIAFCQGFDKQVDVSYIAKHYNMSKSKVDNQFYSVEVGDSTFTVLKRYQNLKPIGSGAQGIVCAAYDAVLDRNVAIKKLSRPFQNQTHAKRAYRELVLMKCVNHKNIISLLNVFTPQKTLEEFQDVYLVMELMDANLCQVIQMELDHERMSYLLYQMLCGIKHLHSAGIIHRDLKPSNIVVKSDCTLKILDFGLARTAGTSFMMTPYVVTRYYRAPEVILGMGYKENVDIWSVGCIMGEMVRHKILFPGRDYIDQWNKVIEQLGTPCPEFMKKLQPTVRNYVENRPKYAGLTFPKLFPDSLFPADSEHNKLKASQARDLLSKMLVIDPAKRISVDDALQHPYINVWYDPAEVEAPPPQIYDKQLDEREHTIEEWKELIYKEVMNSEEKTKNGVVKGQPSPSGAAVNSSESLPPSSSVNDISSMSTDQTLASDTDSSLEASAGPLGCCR

[9] = target: T1, Mitogen-activated protein kinase 13 (Homo sapiens) (UniProt O15264); assay: MAPK13 (p38 delta) Kinase screen; conditions: Compound concentration 1.0 uM
T1 sequence (whole entry): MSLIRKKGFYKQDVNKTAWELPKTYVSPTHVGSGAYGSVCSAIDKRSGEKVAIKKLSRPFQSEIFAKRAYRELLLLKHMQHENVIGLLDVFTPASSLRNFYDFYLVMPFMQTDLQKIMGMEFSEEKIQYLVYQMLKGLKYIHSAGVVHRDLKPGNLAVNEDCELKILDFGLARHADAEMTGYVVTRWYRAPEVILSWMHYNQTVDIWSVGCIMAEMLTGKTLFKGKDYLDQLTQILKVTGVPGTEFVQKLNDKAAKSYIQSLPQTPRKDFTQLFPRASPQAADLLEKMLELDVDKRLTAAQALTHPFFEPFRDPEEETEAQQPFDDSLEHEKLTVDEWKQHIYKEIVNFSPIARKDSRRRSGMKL

[10] = target: T2, Muscle, skeletal receptor tyrosine-protein kinase (Homo sapiens) (UniProt O15146); assay: MUSK Kinase screen; conditions: Compound concentration 1.0 uM
T2 sequence (whole entry): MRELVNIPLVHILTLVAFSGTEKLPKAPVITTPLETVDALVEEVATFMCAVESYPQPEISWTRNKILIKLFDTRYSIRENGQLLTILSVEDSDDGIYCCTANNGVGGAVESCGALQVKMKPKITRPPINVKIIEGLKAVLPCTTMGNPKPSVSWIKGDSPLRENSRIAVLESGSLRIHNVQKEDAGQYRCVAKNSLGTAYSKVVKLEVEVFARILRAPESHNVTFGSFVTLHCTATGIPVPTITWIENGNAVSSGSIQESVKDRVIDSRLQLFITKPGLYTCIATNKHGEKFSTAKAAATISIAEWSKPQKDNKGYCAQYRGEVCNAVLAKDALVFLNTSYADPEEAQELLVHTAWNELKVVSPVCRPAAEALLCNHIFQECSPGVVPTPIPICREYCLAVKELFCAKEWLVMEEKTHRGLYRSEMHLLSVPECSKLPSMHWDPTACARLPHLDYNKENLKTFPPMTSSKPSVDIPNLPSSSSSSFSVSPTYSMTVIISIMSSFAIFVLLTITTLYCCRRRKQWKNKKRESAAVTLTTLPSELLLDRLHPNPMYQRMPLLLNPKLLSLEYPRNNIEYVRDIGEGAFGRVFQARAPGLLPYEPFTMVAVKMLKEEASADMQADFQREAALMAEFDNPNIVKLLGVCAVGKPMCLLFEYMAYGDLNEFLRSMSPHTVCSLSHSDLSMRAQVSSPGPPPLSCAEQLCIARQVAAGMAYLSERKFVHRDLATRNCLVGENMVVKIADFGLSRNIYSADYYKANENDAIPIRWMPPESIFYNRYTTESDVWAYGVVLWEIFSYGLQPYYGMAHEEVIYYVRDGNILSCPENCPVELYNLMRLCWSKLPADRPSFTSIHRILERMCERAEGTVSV

[11] = target: Serine/threonine-protein kinase Nek6 (Homo sapiens) (UniProt Q9HC98); assay: NEK6 Kinase screen; conditions: Compound concentration 1.0 uM
Sequence of Serine/threonine-protein kinase Nek6 (Homo sapiens) (Q9HC98 whole entry): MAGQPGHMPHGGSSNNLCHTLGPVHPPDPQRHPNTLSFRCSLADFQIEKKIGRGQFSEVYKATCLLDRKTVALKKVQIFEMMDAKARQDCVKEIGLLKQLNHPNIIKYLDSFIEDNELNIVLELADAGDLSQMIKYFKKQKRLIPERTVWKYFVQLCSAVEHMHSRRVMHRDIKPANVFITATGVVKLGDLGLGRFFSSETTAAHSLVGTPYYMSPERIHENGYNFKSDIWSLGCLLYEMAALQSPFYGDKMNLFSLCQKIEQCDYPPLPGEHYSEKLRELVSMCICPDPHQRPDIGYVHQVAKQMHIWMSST

[12] = target: T3, Protein kinase C iota type (Homo sapiens) (UniProt P41743); assay: PRKCI (PKC iota) Kinase screen; conditions: Compound concentration 1.0 uM
T3 sequence (whole entry): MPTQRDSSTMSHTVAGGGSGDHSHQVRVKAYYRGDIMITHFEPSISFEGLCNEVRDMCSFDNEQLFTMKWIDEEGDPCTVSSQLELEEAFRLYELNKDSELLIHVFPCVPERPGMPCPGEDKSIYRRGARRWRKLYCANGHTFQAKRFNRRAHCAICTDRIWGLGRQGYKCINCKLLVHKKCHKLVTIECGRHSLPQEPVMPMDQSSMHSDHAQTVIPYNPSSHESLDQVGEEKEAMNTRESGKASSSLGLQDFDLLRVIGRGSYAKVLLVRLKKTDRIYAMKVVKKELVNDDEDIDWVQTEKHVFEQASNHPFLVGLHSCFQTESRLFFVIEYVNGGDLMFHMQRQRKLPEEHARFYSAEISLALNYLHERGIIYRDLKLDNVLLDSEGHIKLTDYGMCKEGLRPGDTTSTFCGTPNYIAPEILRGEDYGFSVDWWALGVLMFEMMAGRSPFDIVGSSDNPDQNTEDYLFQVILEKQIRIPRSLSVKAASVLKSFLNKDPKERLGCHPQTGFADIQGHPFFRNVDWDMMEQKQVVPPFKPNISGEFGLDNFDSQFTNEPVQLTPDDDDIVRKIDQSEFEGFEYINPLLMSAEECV

[13] = target: Protein kinase C theta type (Homo sapiens) (UniProt Q04759); assay: PRKCQ (PKC theta) Kinase screen; conditions: Compound concentration 1.0 uM
Sequence of Protein kinase C theta type (Homo sapiens) (Q04759 whole entry, looked up): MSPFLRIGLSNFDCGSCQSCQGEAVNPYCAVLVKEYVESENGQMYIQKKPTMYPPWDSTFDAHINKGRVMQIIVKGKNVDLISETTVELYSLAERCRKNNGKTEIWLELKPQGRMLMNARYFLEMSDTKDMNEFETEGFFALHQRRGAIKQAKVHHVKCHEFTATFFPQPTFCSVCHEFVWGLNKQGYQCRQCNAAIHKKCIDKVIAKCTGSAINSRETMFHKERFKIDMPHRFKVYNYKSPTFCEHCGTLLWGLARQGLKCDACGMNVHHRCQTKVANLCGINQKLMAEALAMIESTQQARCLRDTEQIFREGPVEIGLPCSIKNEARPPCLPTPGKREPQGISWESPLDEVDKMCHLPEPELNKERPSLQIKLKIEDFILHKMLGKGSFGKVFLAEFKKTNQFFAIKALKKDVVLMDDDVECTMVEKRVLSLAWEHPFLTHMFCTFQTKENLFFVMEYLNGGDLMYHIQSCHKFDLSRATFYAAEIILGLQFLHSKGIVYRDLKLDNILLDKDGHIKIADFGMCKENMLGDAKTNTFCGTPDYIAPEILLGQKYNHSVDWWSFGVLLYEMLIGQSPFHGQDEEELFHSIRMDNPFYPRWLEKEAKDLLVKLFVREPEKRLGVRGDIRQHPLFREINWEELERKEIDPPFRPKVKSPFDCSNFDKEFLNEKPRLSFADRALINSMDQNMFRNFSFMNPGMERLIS

[14] = target: T4, 5-hydroxytryptamine receptor 1A (Homo sapiens) (UniProt P08908); conditions: Compound concentration 10.0 uM
T4 sequence (whole entry): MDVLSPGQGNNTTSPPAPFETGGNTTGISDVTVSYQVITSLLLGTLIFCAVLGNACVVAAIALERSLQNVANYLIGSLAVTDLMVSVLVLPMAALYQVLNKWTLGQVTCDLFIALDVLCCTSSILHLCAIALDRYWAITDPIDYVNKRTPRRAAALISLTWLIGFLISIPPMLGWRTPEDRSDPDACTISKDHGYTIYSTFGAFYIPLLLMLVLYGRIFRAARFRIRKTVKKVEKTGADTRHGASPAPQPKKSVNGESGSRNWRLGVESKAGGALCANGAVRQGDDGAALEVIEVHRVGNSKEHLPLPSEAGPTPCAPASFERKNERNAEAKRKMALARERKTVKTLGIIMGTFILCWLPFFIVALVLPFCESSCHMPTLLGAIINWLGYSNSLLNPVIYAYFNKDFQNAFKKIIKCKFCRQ

[15] = target: Glucocorticoid receptor (Homo sapiens) (UniProt P04150); conditions: Compound concentration 10.0 uM
Sequence of Glucocorticoid receptor (Homo sapiens) (P04150 whole entry): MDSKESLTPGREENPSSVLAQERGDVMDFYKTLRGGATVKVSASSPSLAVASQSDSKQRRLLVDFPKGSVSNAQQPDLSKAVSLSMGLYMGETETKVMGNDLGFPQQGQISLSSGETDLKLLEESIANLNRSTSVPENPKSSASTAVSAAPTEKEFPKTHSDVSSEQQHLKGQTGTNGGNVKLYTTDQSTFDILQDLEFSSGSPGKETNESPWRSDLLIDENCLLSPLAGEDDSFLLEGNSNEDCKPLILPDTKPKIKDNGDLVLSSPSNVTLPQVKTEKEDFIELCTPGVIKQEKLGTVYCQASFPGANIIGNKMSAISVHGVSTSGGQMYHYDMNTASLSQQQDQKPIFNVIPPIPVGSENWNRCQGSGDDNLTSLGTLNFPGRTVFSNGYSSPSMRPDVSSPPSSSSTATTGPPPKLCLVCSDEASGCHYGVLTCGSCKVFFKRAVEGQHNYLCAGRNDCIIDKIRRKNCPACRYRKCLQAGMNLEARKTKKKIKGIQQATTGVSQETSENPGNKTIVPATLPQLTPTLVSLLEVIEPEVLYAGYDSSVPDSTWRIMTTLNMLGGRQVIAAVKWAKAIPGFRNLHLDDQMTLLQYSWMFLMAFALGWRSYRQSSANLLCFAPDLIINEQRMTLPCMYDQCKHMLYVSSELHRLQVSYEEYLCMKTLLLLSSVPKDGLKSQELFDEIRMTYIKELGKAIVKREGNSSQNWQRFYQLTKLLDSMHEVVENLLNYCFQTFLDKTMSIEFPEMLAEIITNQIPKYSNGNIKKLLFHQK

[16] = target: Cannabinoid receptor 2 (Homo sapiens) (UniProt P34972)
Sequence of Cannabinoid receptor 2 (Homo sapiens) (P34972 whole entry): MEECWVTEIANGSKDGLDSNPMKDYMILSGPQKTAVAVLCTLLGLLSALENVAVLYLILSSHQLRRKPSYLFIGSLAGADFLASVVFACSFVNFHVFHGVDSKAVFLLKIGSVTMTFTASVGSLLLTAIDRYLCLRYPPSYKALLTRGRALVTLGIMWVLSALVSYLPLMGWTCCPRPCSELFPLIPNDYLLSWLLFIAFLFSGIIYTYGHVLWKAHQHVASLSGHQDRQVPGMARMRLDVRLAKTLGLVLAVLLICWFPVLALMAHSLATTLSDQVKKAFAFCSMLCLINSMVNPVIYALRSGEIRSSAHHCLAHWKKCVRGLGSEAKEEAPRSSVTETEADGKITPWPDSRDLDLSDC

Measured: inhibition

C[C@@H]1CN(c2cc(-c3n[nH]c4ccc(OC5(C)CC5)cc34)ncn2)C[C@H](C)O1 [MLi-2]
inactive: [1] 8.15% | [2] 1.29% | [3] 5.55% | [4] 10.4% | [5] 5.27% | [6] 7.14% | [7] -0.884% | [8] 13.6% | [9] 4.25% | [10] -0.0337% | [11] 4.75% | [12] -0.512% | [13] 2.46% | [14] -6% | [15] 19% | [16]; Compound concentration 3.0 uM 2% | [16]; Compound concentration 10.0 uM 2%
